# From patent US10463700B2, “Use of propolis for combating the side effects of chemotherapy” (POLLENERGIE, priority 2013, dated 2019)
# Test system: progenerating CD34+ stock cells obtained from human bone marrow
# Assay: Cytolysis of CD34+ progenerating stock cells after chemotherapy treatment (SYTOX green)
# Assay type: cell-based
# Details: propolis 0 μg/ml (Control)
# Protocol: The objective of the test is to evaluate the effect of the propolis on the cytolysis of progenerating CD34+ stock cells obtained from human bone marrow following the application of chemotherapy treatment (epirubicin and taxotere).
# The culture medium that is used is as follows: IMDM, 15 SVF, SCF (50 ng/ml), TPO (50 ng/ml), FK (50 ng/ml).
# The test protocol is described below.
# On D3: thawing and seeding with 50,000 cells/ml in a flask ([…])
# On D0: marking and seeding with 6,000 cells/well in a 96-well plate
# Between D0 and D4: • Treatment of cells with a propolis extract (Example 1) between D0 and D3 with the following doses: 0, 0.5, 1, 4, 10 and 20 μg/ml • Treatment of cells with chemotherapy agents (epirubicin at […] and taxotere […]) between D1 and D3
# On D5: Marking with 5 nM of SYTOX green, and measurement of cytolysis.
# The obtained results that are presented in the table below provide the percentage of CD34+ progenerating stock cells that is cytolyzed on D5.
smiles,measurement,setting,value
COc1cccc2c1C(=O)c1c(O)c3c(c(O)c1C2=O)C[C@@](O)(C(=O)CO)C[C@@H]3O[C@H]1C[C@H](N)[C@@H](O)[C@H](C)O1 [Epirubicin],percentage of CD34+ progenerating stock cells that is cytolyzed on D5,Epirubicin 4.74.10^6 M D1-D3 alone,53.93%
CC(=O)O[C@@]12CO[C@@H]1C[C@H](O)[C@@]1(C)C(=O)[C@H](O)C3=C(C)[C@@H](OC(=O)[C@H](O)[C@@H](NC(=O)OC(C)(C)C)c4ccccc4)C[C@@](O)([C@@H](OC(=O)c4ccccc4)[C@H]21)C3(C)C [Taxotere],percentage of CD34+ progenerating stock cells that is cytolyzed on D5,Taxotere 2.80.10^6 M D1-D3 alone,65.47%
